Patent US20120071322A1, “Substituted Pyridopyrazines with a Herbicidal Action” (BASF SE, priority 2009, published 2012)

Columns and labels:
[1] = test system: AVEFA; experiment: greenhouse experiment, post-emergence treatment; assay type: in vivo, Avena fatua; conditions: post-emergence method, application rate 3.0 kg/ha, scale from 0 to 100
Text: (§1) The seeds of the test plants were sown separately for each species. For the post-emergence treatment, the test plants were first grown to a height of 3 to 15 cm, depending on the plant habit, and then treated with the active compounds which had been suspended or emulsified in water. For this purpose, the test plants were either sown directly and grown in the same containers, or they were first grown separately as seedlings and transplanted into the test containers a few days prior to treatment. Depending on the species, the plants were kept at 10-25° C. or 20-35° C. The test period extended over 2 to 4 weeks. During this time, the plants were tended, and their response to the individual treatments was evaluated. Evaluation was carried out using a scale from 0 to 100. 100 means no emergence of the plants, or complete destruction of at least the aerial moieties, and 0 means no damage, or normal course of growth. A good herbicidal activity is given at values of at least 70 and a very good herbicidal activity is given at values of at least 85. [table]

[2] = test system: SETFA; experiment: greenhouse experiment, post-emergence treatment; assay type: in vivo, Setaria faberi; conditions: post-emergence method, application rate 3.0 kg/ha, scale from 0 to 100
Text: as §1

[3] = test system: ABUTH; experiment: greenhouse experiment, post-emergence treatment; assay type: in vivo, Abutilon theophrasti; conditions: post-emergence method, application rate 3.0 kg/ha, scale from 0 to 100
Text: as §1

[4] = test system: SETIT; experiment: greenhouse experiment, pre-emergence treatment; assay type: in vivo, Setaria italica; conditions: pre-emergence method, application rate 3.0 kg/ha, scale from 0 to 100
Text: The seeds of the test plants were sown separately for each species. For the pre-emergence treatment, the active compounds, which had been suspended or emulsified in water, were applied directly after sowing by means of finely distributing nozzles. The containers were irrigated gently to promote germination and growth and subsequently covered with transparent plastic hoods until the plants had rooted. This cover caused uniform germination of the test plants, unless this has been impaired by the active compounds. Depending on the species, the plants were kept at 10-25° C. or 20-35° C. The test period extended over 2 to 4 weeks. During this time, the plants were tended, and their response to the individual treatments was evaluated. Evaluation was carried out using a scale from 0 to 100. 100 means no emergence of the plants, or complete destruction of at least the aerial moieties, and 0 means no damage, or normal course of growth. A good herbicidal activity is given at values of at least 70 and a very good herbicidal activity is given at values of at least 85. [table]

Structure (SMILES): O=c1oc2nccnc2c(O)c1-c1ccccc1C(F)(F)F [example 1, 8-Hydroxy-7-(2-trifluoromethylphenyl)pyrano[2,3-b]pyrazin-6-one]
- herbicidal activity against AVEFA [1]: good herbicidal activity (A good herbicidal activity is given at values of at least 70)
- herbicidal activity against SETFA [2]: good herbicidal activity (A good herbicidal activity is given at values of at least 70)
- herbicidal activity against ABUTH [3]: good herbicidal activity (A good herbicidal activity is given at values of at least 70)
- herbicidal activity against SETIT [4]: very good herbicidal activity (a very good herbicidal activity is given at values of at least 85)
